# Data reported in ChEMBL document CHEMBL5236598, “Lead Optimization and Avoidance of Metabolic-perturbing Motif Developing Novel Diarylpyrimidines as Potent HIV-1 NNRTIs” (J Med Chem, 2022).
# Key:
# [1] = Cytotoxicity against human MT4 cells assessed as reduction in cell viability measured after 5 days by MTT assay; format: toxicity, cell-based; details: time 5 day
# [2] = Selectivity index, ratio of CC50 for cytotoxicity against human MT4 cells to EC50 for antiviral activity against HIV-1 RES056 harboring RT K103N/Y181C double mutant infected in human MT4 cells; format: toxicity, cell-based; details: read-out: Ratio CC50/EC50
# [3] = test system: Human immunodeficiency virus 1; experiment: Antiviral activity against HIV-1 RES056 harboring RT K103N/Y181C double mutant infected in human MT4 cells assessed as protection against virus-induced cytopathic effect incubated for 5 days by MTT assay; format: functional, organism-based; details: Human immunodeficiency virus 1, RES056, MT4, 120 h
# [4] = test system: Human immunodeficiency virus 1; experiment: Antiviral activity against wild type HIV-1 IIIB infected in human MT4 cells assessed as protection against virus-induced cytopathic effect incubated for 5 days by MTT assay; format: functional, organism-based; details: Human immunodeficiency virus 1, IIIB, MT4, 120 h
# [5] = Selectivity index, ratio of CC50 for cytotoxicity against human MT4 cells to EC50 for antiviral activity against wild type HIV-1 IIIB infected in human MT4 cells; format: toxicity, cell-based; details: read-out: Ratio CC50/EC50
SMILES,CC50 at 120 h [1],selectivity ratio [2],EC50 [3],EC50 [4],selectivity ratio [5]
Cc1cc(C#N)cc(C)c1Oc1nc(NC2CCN(c3ccc(NS(N)(=O)=O)cc3F)CC2)nc2ccsc12,24.7 µM,5,4.93 µM,0.0229 µM,1080
Cc1cc(/C=C/C#N)cc(C)c1Oc1nc(NC2CCN(c3ccc([N+](=O)[O-])cc3F)CC2)nc2ccsc12,14.2 µM,< 1,> 14.2 µM,0.14 µM,101
Cc1cc(C#N)cc(C)c1Oc1nc(NC2CCN(c3c(F)cc([N+](=O)[O-])cc3F)CC2)nc2ccsc12,740 µM,< 1,> 30.3 µM,0.057 µM,12900
Cc1cc(C#N)cc(C)c1Oc1nc(NC2CCN(c3c(F)cc(N)cc3F)CC2)nc2ccsc12,5.45 µM,< 1,> 5.54 µM,0.0374 µM,146
Cc1cc(-c2ccc(C#N)cc2)cc(C)c1Oc1nc(Nc2ccc(C#N)c(F)c2)nc2ccsc12,71.5 µM,11,6.35 µM,0.711 µM,101
Cc1cc(C#N)cc(C)c1Oc1nc(NC2CCN(c3ccc(N)cc3F)CC2)nc2sccc12,26.9 µM,10,2.6 µM,0.0207 µM,1300
Cc1cc(-c2ccc(F)cc2)cc(C)c1Oc1nc(Nc2ccc(C#N)nc2)nc2sccc12,2.23 µM,< 1,> 2.23 µM,0.802 µM,3
Cc1cc(-c2ccc(F)cc2)cc(C)c1Oc1nc(Nc2ccc(C#N)nc2)nc2ccsc12,6.13 µM,< 1,> 6.13 µM,0.451 µM,14
Cc1cc(/C=C/C#N)cc(C)c1Oc1nc(Nc2ccc(C#N)nc2)nc2cc[nH]c12,7.94 µM,< 1,> 7.94 µM,1.63 µM,5
Cc1cc(/C=C/C#N)cc(C)c1Oc1nc(NC2CCN(c3c(F)cc([N+](=O)[O-])cc3F)CC2)nc2sccc12,> 222 µM,> 8,27.4 µM,0.068 µM,> 3260
Cc1cc(C#N)cc(C)c1Oc1nc(NC2CCN(c3c(F)cc(N)cc3F)CC2)nc2sccc12,5.45 µM,< 1,> 5.45 µM,0.0325 µM,168
Cc1cc(/C=C/C#N)cc(C)c1Oc1nc(NC2CCN(c3ccc(N)cc3F)CC2)nc2ccsc12,23 µM,26,0.876 µM,0.0313 µM,735
Cc1cc(C#N)cc(C)c1Oc1nc(NC2CCN(c3ccc(N)cc3)CC2)nc2sccc12,31 µM,18,1.74 µM,0.0359 µM,864
N#C/C=C/c1cc(F)c(Oc2nc(Nc3ccc(C#N)c(F)c3)nc3cc[nH]c23)c(F)c1,10.2 µM,16,0.63 µM,0.038 µM,268
Cc1cc(C#N)cc(C)c1Oc1nc(NC2CCN(c3c(F)cc(NS(N)(=O)=O)cc3F)CC2)nc2sccc12,3.96 µM,< 1,> 3.96 µM,0.0123 µM,322
Cc1cc(C#N)cc(C)c1Oc1nc(NC2CCN(c3c(F)cc(NS(N)(=O)=O)cc3F)CC2)nc2ccsc12,12.6 µM,2,7.51 µM,0.0353 µM,357
Cc1cc(/C=C/C#N)cc(C)c1Oc1nc(NC2CCN(c3c(F)cc([N+](=O)[O-])cc3F)CC2)nc2ccsc12,99.5 µM,13,7.67 µM,0.125 µM,794
